Measurements: ChEMBL document CHEMBL3612057, “Discovery of indolizines containing triazine moiety as new leads for the development of antitumoral agents targeting mitotic events” (2015)
Active and inactive are the calls of the source. The rule behind the calls is not given here.

Columns and labels:
NCI-H522 = assay: Cytotoxicity against human NCI-H522 cells assessed as growth inhibition at 10 uM after 24 hrs by SRB assay; format: functional
PC-3 = assay: Cytotoxicity against human PC3 cells assessed as growth inhibition at 10 uM after 24 hrs by SRB assay; format: functional; settings: PC-3, 24 h, read-out: GI
HL-60(TB) = assay: Cytotoxicity against human HL-60(TB) cells assessed as growth inhibition at 10 uM after 24 hrs by SRB assay; format: functional
RXF 393 = assay: Cytotoxicity against human RXF393 cells assessed as growth inhibition at 10 uM after 24 hrs by SRB assay; format: functional; settings: RXF 393, 24 h, read-out: GI
UACC-62 = assay: Cytotoxicity against human UACC62 cells assessed as growth inhibition at 10 uM after 24 hrs by SRB assay; format: functional
NCI/ADR-RES = assay: Cytotoxicity against human NCI/ADR-RES cells assessed as growth inhibition at 10 uM after 24 hrs by SRB assay; format: functional; settings: read-out: GI
SK-MEL-28 = assay: Cytotoxicity against human SK-MEL-28 cells assessed as growth inhibition at 10 uM after 24 hrs by SRB assay; format: functional; settings: SK-MEL-28, 24 h, read-out: GI
SK-OV-3 = assay: Cytotoxicity against human SKOV3 cells assessed as growth inhibition at 10 uM after 24 hrs by SRB assay; format: functional
Ovis aries = organism: Ovis aries; assay: Inhibition of sheep tubulin polymerization at 100 uM by fluorescence assay
OVCAR-8 = assay: Cytotoxicity against human OVCAR8 cells assessed as growth inhibition at 10 uM after 24 hrs by SRB assay; format: functional; settings: OVCAR-8, 24 h, read-out: GI
HOP-62 = assay: Cytotoxicity against human HOP62 cells assessed as growth inhibition at 10 uM after 24 hrs by SRB assay; format: functional; settings: HOP-62, 24 h, read-out: GI
SF-295 = assay: Cytotoxicity against human SF295 cells assessed as growth inhibition at 10 uM after 24 hrs by SRB assay; format: functional; settings: SF-295, 24 h, read-out: GI
OVCAR-3 = assay: Cytotoxicity against human OVCAR3 cells assessed as growth inhibition at 10 uM after 24 hrs by SRB assay; format: functional; settings: OVCAR-3, 24 h, read-out: GI
T47D = assay: Cytotoxicity against human T47D cells assessed as growth inhibition at 10 uM after 24 hrs by SRB assay; format: functional
CAKI-1 = assay: Cytotoxicity against human CAKI-1 cells assessed as growth inhibition at 10 uM after 24 hrs by SRB assay; format: functional; settings: CAKI-1, 24 h, read-out: GI
OVCAR-4 = assay: Cytotoxicity against human OVCAR4 cells assessed as growth inhibition at 10 uM after 24 hrs by SRB assay; format: functional
RPMI-8226 = assay: Cytotoxicity against human RPMI8226 cells assessed as growth inhibition at 10 uM after 24 hrs by SRB assay; format: functional
MCF7 = assay: Cytotoxicity against human MCF7 cells assessed as growth inhibition at 10 uM after 24 hrs by SRB assay; format: functional; settings: MCF7, 24 h, read-out: GI
786-0 = assay: Cytotoxicity against human 786-0 cells assessed as growth inhibition at 10 uM after 24 hrs by SRB assay; format: functional
SNB-75 = assay: Cytotoxicity against human SNB75 cells assessed as growth inhibition at 10 uM after 24 hrs by SRB assay; format: functional; settings: SNB-75, 24 h, read-out: GI
MDA-MB-231 = assay: Cytotoxicity against human MDA-MB-231 cells assessed as growth inhibition at 10 uM after 24 hrs by SRB assay; format: functional; settings: MDA-MB-231, 24 h, read-out: GI
SR = assay: Cytotoxicity against human SR cells assessed as growth inhibition at 10 uM after 24 hrs by SRB assay; format: functional
UACC-257 = assay: Cytotoxicity against human UACC257 cells assessed as growth inhibition at 10 uM after 24 hrs by SRB assay; format: functional
ACHN = assay: Cytotoxicity against human ACHN cells assessed as growth inhibition at 10 uM after 24 hrs by SRB assay; format: functional; settings: read-out: GI
CCRF-CEM = assay: Cytotoxicity against human CCRF-CEM cells assessed as growth inhibition at 10 uM after 24 hrs by SRB assay; format: functional
U-251 = assay: Cytotoxicity against human U251 cells assessed as growth inhibition at 10 uM after 24 hrs by SRB assay; format: functional
HOP-92 = assay: Cytotoxicity against human HOP92 cells assessed as growth inhibition at 10 uM after 24 hrs by SRB assay; format: functional
A549 = assay: Cytotoxicity against human A549 cells assessed as growth inhibition at 10 uM after 24 hrs by SRB assay; format: functional; settings: A549, 24 h, read-out: GI
K562 = assay: Cytotoxicity against human K562 cells assessed as growth inhibition at 10 uM after 24 hrs by SRB assay; format: functional
MDA-MB-435 = assay: Cytotoxicity against human MDA-MB-435 cells assessed as growth inhibition at 10 uM after 24 hrs by SRB assay; format: functional
[1] = Cytotoxicity against human Hs578T cells assessed as growth inhibition at 10 uM after 24 hrs by SRB assay; format: functional; settings: Hs-578T, read-out: GI
Malme-3M = assay: Cytotoxicity against human MALME-3M cells assessed as growth inhibition at 10 uM after 24 hrs by SRB assay; format: functional; settings: read-out: GI
TK-10 = assay: Cytotoxicity against human TK10 cells assessed as growth inhibition at 10 uM after 24 hrs by SRB assay; format: functional
SF-539 = assay: Cytotoxicity against human SF539 cells assessed as growth inhibition at 10 uM after 24 hrs by SRB assay; format: functional
HCT-116 = assay: Cytotoxicity against human HCT116 cells assessed as growth inhibition at 10 uM after 24 hrs by SRB assay; format: functional
NCI-H460 = assay: Cytotoxicity against human NCI-H460 cells assessed as growth inhibition at 10 uM after 24 hrs by SRB assay; format: functional
NCI-H226 = assay: Cytotoxicity against human NCI-H226 cells assessed as growth inhibition at 10 uM after 24 hrs by SRB assay; format: functional
SK-MEL-5 = assay: Cytotoxicity against human SK-MEL-5 cells assessed as growth inhibition at 10 uM after 24 hrs by SRB assay; format: functional

SMILES | inhibition of growth at 10 µM (PC-3) | inhibition of growth at 10 µM (RXF 393) | inhibition of growth at 10 µM (NCI/ADR-RES) | inhibition of growth at 10 µM (SK-MEL-28) | inhibition (Ovis aries) | inhibition of growth at 10 µM (OVCAR-8) | inhibition of growth at 10 µM (HOP-62) | inhibition of growth at 10 µM (SF-295) | inhibition of growth at 10 µM (OVCAR-3) | inhibition of growth at 10 µM (CAKI-1) | inhibition of growth at 10 µM (MCF7) | inhibition of growth at 10 µM (SNB-75) | inhibition of growth at 10 µM (MDA-MB-231) | inhibition of growth at 10 µM (ACHN) | growth inhibition (GI) (U-251) | growth inhibition (GI) (HOP-92) | inhibition of growth at 10 µM (A549) | inhibition of growth at 10 µM [1] | inhibition of growth at 10 µM (Malme-3M) | growth inhibition (GI) (TK-10) | also measured
COc1nc(OC)nc(-c2cc(C(=O)c3ccc(Br)cc3)n3c2ccc2ccccc23)n1 | 37% | 61% | 43% | 43% | inactive | 50% | 79% | 59% | 31% | 33% | 44% | 69% | 80% | 22% | inactive | inactive | 49% | 56% | 58% | inactive | growth inhibition (GI) (NCI-H522): inactive; growth inhibition (GI) (HL-60(TB)): inactive; growth inhibition (GI) (UACC-62): inactive; growth inhibition (GI) (SK-OV-3): inactive; inhibition of growth at 10 µM (T47D; read-out: GI): 31%; inhibition of growth at 10 µM (OVCAR-4; OVCAR-4, 24 h, read-out: GI): 30%; growth inhibition (GI) (RPMI-8226): inactive; inhibition of growth at 10 µM (786-0; 786-0, 24 h, read-out: GI): 45%; growth inhibition (GI) (SR): inactive; inhibition of growth at 10 µM (UACC-257; UACC-257, 24 h, read-out: GI): 30%; growth inhibition (GI) (CCRF-CEM): inactive; growth inhibition (GI) (K562): inactive; growth inhibition (GI) (MDA-MB-435): inactive; growth inhibition (GI) (SF-539): inactive; growth inhibition (GI) (HCT-116): inactive; inhibition of growth at 10 µM (NCI-H460; NCI-H460, 24 h, read-out: GI): 68%; inhibition of growth at 10 µM (NCI-H226; NCI-H226, 24 h, read-out: GI): 35%; growth inhibition (GI) (SK-MEL-5): inactive
COc1nc(OC)nc(-c2cc(C(=O)c3cc(OC)c(OC)c(OC)c3)n3c(C)cccc23)n1 | 19% | 31% | 15% | 14% | inactive | 12% | 34% | 15% | 19% | 11% | 55% | 67% | 17% | 30% | inactive | inactive | 17% | 17% | 37% | inactive | inhibition of growth at 10 µM (NCI-H522; NCI-H522, 24 h, read-out: GI): 56%; inhibition of growth at 10 µM (HL-60(TB); HL-60, 24 h, read-out: GI): 33%; inhibition of growth at 10 µM (UACC-62; UACC-62, 24 h, read-out: GI): 30%; inhibition of growth at 10 µM (SK-OV-3; SK-OV-3, 24 h, read-out: GI): 18%; growth inhibition (GI) (T47D): inactive; growth inhibition (GI) (OVCAR-4): inactive; inhibition of growth at 10 µM (RPMI-8226; RPMI-8226, 24 h, read-out: GI): 10%; growth inhibition (GI) (786-0): inactive; inhibition of growth at 10 µM (SR; read-out: GI): 67%; growth inhibition (GI) (UACC-257): inactive; inhibition of growth at 10 µM (CCRF-CEM; read-out: GI): 10%; inhibition of growth at 10 µM (K562; K562, 24 h, read-out: GI): 45%; inhibition of growth at 10 µM (MDA-MB-435; MDA-MB-435, 24 h, read-out: GI): 86%; inhibition of growth at 10 µM (SF-539; SF-539, 24 h, read-out: GI): 14%; inhibition of growth at 10 µM (HCT-116; HCT-116, 24 h, read-out: GI): 15%; growth inhibition (GI) (NCI-H460): inactive; growth inhibition (GI) (NCI-H226): inactive; inhibition of growth at 10 µM (SK-MEL-5; SK-MEL-5, 24 h, read-out: GI): 41%
